Source: PubChem BioAssay AID248 (DTP/NCI, 2004)
“And” between values parts separate entries of the source, which are not always exact repeats. Equal values may be shown once. Toxic doses and inconclusive results are not listed.

Test system: L1210 leukemia ip in BDF1 mice, survival T/C
Assay: NCI In Vivo Anticancer Drug Screen. Data for tumor model L1210 Leukemia (intraperitoneal) in B6D2F1 (BDF1) mice
Settings: endpoint: mean survival time, higher = longer survival
Method in brief: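 Antitumor effect is assessed in tumor-bearing animals. Survival in the compound arm is compared with a vehicle-dosed control arm and expressed as their quotient.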

[1] = dose: 75.0 mg/kg/injection, schedule: Q01DX001 (ip), vehicle: carboxymethylcellulose (CMC)
[2] = dose: 150.0 mg/kg/injection, schedule: Q01DX001 (ip), vehicle: carboxymethylcellulose (CMC)
[3] = dose: 100.0 mg/kg/injection, schedule: Q01DX009 (ip), vehicle: Klucel (hydroxypropylcellulose) (HPC)
[4] = dose: 200.0 mg/kg/injection, schedule: Q01DX009 (ip), vehicle: Klucel (hydroxypropylcellulose) (HPC)
[5] = dose: 100.0 mg/kg/injection, schedule: Q04DX002 (ip), vehicle: Klucel (hydroxypropylcellulose) (HPC)
[6] = dose: 200.0 mg/kg/injection, schedule: Q04DX002 (ip), vehicle: Klucel (hydroxypropylcellulose) (HPC)
[7] = dose: 400.0 mg/kg/injection, schedule: Q04DX002 (ip), vehicle: Klucel (hydroxypropylcellulose) (HPC)
[8] = dose: 100.0 mg/kg/injection, schedule: Q01DX009 (ip), vehicle: saline
[9] = dose: 100.0 mg/kg/injection, schedule: Q04DX003 (ip), vehicle: saline
[10] = dose: 200.0 mg/kg/injection, schedule: Q04DX003 (ip), vehicle: saline
[11] = dose: 400.0 mg/kg/injection, schedule: Q04DX003 (ip), vehicle: saline
[12] = dose: 100.0 mg/kg/injection, schedule: Q01DX009 (ip), vehicle: saline with Tween-80
[13] = dose: 100.0 mg/kg/injection, schedule: Q04DX003 (ip), vehicle: saline with Tween-80
[14] = dose: 200.0 mg/kg/injection, schedule: Q04DX003 (ip), vehicle: saline with Tween-80
[15] = dose: 400.0 mg/kg/injection, schedule: Q04DX003 (ip), vehicle: saline with Tween-80
[16] = dose: 100.0 mg/kg/injection, schedule: Q04DX003 (ip), vehicle: Klucel (hydroxypropylcellulose) (HPC)
[17] = dose: 200.0 mg/kg/injection, schedule: Q04DX003 (ip), vehicle: Klucel (hydroxypropylcellulose) (HPC)
[18] = dose: 400.0 mg/kg/injection, schedule: Q04DX003 (ip), vehicle: Klucel (hydroxypropylcellulose) (HPC)
[19] = dose: 100.0 mg/kg/injection, schedule: Q01DX001 (ip), vehicle: saline with Tween-80

For CC(C)C1CCC(NC(=O)N(CCF)N=O)CC1 (stereo not drawn), the T/C (dose: 9.5 mg/kg/injection, schedule: Q01DX001 (ip), vehicle: other) was 108 % of control, the T/C (dose: 23.0 mg/kg/injection, schedule: Q01DX001 (ip), vehicle: other) was 165 % of control and the T/C (dose: 30.0 mg/kg/injection, schedule: Q01DX001 (ip), vehicle: other) was 187 % of control. The T/C (dose: 38.0 mg/kg/injection, schedule: Q01DX001 (ip), vehicle: other) was 209 % of control, the T/C (dose: 46.0 mg/kg/injection, schedule: Q01DX001 (ip), vehicle: other) was 212 % of control and the T/C (dose: 62.0 mg/kg/injection, schedule: Q01DX001 (ip), vehicle: other) was 312 % of control.
With Cn1c(=O)c2c(nc(OC3CCCCCC3)n2C)n(C)c1=O the T/C (dose: 50.0 mg/kg/injection, schedule: Q01DX001 (ip), vehicle: other) was 101 % of control, the T/C (dose: 100.0 mg/kg/injection, schedule: Q01DX001 (ip), vehicle: other) was 93 % of control and the T/C (dose: 200.0 mg/kg/injection, schedule: Q01DX001 (ip), vehicle: other) was 98 % of control.
For O=C(O)c1cccc2c1C(=O)c1cc([N+](=O)[O-])ccc1-2, the T/C [1] was 101 % of control and the T/C [2] was 105 % of control.
In the case of Cc1n(CCBr)c([N+](=O)[O-])c[n+]1C1N=C(c2ccccc2)c2cc(Cl)ccc2N(C)C1=O (stereo not drawn), the T/C (dose: 50.0 mg/kg/injection, schedule: Q01DX009 (ip), vehicle: Klucel (hydroxypropylcellulose) (HPC)) is reported as 89 % of control, the T/C [3] is reported as 89 % of control and the T/C [4] is reported as 86 % of control.
For CCc1cc[c]([Hg][Cl])o1, the T/C (dose: 12.5 mg/kg/injection, schedule: Q01DX001 (ip), vehicle: other) was 100 % of control and the T/C (dose: 25.0 mg/kg/injection, schedule: Q01DX001 (ip), vehicle: other) was 100 % of control.
In the case of CC(C)(C)SCCN1C(=O)C2C3CCC(O3)C2C1=O (stereo not drawn), the T/C [5] is reported as 104 % of control, the T/C [6] is reported as 100 % of control and the T/C [7] is reported as 107 % of control.
For O=C(O)CC(C(=O)O)(c1c[nH]c2ccccc12)c1c[nH]c2ccccc12, the T/C [1] was 89 % of control, the T/C [2] was 93 % of control and the T/C (dose: 300.0 mg/kg/injection, schedule: Q01DX001 (ip), vehicle: carboxymethylcellulose (CMC)) was 90 % of control.
With O=C(Nc1cccc([N+](=O)[O-])c1)c1ccc(Cl)cc1 the T/C (dose: 100.0 mg/kg/injection, schedule: Q04DX003 (ip), vehicle: gum acacia) was 101 % of control, the T/C (dose: 200.0 mg/kg/injection, schedule: Q04DX003 (ip), vehicle: gum acacia) was 95 % of control and the T/C (dose: 400.0 mg/kg/injection, schedule: Q04DX003 (ip), vehicle: gum acacia) was 101 % of control.
For CCOC(=O)n1ncnc1N, the T/C [8] was 94 % of control, the T/C [9] was 91 % of control and the T/C (dose: 200.0 mg/kg/injection, schedule: Q01DX009 (ip), vehicle: saline) was 98 % of control. The T/C [10] was 98 % of control, the T/C (dose: 400.0 mg/kg/injection, schedule: Q01DX009 (ip), vehicle: saline) was 104 % of control and the T/C [11] was 95 % of control.
In the case of Cc1ccccc1[P+](Cc1ccccc1)(c1ccccc1C)c1ccccc1C, the T/C (dose: 15.0 mg/kg/injection, schedule: Q01DX001 (ip), vehicle: carboxymethylcellulose (CMC)) is reported as 96 % of control, the T/C (dose: 30.0 mg/kg/injection, schedule: Q01DX001 (ip), vehicle: carboxymethylcellulose (CMC)) is reported as 94 % of control and the T/C (dose: 60.0 mg/kg/injection, schedule: Q01DX001 (ip), vehicle: carboxymethylcellulose (CMC)) is reported as 94 % of control.
CCOC(OC(C)=O)OC(C)=O was tested, and the T/C [9] was 87 % of control, the T/C [10] was 101 % of control and the T/C [11] was 97 % of control.
In the case of COc1cc(/C=N\N=C\c2cc(OC)c(OC)c(OC)c2)cc(OC)c1OC, the T/C [12] is reported as 96 % of control, the T/C [13] is reported as 97 % of control and the T/C (dose: 200.0 mg/kg/injection, schedule: Q01DX009 (ip), vehicle: saline with Tween-80) is reported as 96 % of control. The T/C [14] was 92 % of control, the T/C (dose: 400.0 mg/kg/injection, schedule: Q01DX009 (ip), vehicle: saline with Tween-80) was 92 % of control and the T/C [15] was 92 % of control.
In the case of C1CN1P1(N2CC2)=NP(N2CC2)(N2CC2)=NP(N2CC2)(N2CC2)=N1, the T/C (dose: 10.0 mg/kg/injection, schedule: Q01DX009 (ip), vehicle: saline) is reported as 159 % of control, the T/C (dose: 20.0 mg/kg/injection, schedule: Q01DX009 (ip), vehicle: saline) is reported as 104 % of control and the T/C (dose: 75.0 mg/kg/injection, schedule: Q01DX001 (ip), vehicle: saline) is reported as 162 % of control.
With CC(C)(C)NC(=O)NCCc1ccccc1 the T/C [3] was 106 % of control, the T/C [16] was 96 % of control and the T/C [17] was 97 % of control and 89 % of control. For the same molecule, the T/C (dose: 400.0 mg/kg/injection, schedule: Q01DX009 (ip), vehicle: Klucel (hydroxypropylcellulose) (HPC)) was 103 % of control and the T/C [18] was 91 % of control and 92 % of control.
With O=C(Nc1ccc([N+](=O)[O-])cc1)c1cc(Cl)c2ccccc2c1O the T/C [3] was 106 % of control and the T/C [4] was 98 % of control.
With c1ccc2c(c1)C(=Nc1ccc3ccccc3c1)c1ccccc1-2 the T/C [13] was 97 % of control, the T/C [14] was 88 % of control and the T/C [15] was 92 % of control.
In the case of COc1ccc(-c2cc(C(=O)O)c3cccc(C(F)(F)F)c3n2)cc1, the T/C [9] is reported as 90 % of control.
For CCOC(=O)c1n[nH]c(=S)[nH]c1=S, the T/C (dose: 100.0 mg/kg/injection, schedule: Q01DX001 (ip), vehicle: acetone) was 102 % of control, the T/C (dose: 200.0 mg/kg/injection, schedule: Q01DX001 (ip), vehicle: acetone) was 101 % of control and the T/C (dose: 400.0 mg/kg/injection, schedule: Q01DX001 (ip), vehicle: acetone) was 107 % of control.
O=C(Nc1ccc(C2=NCCN2)cc1)c1cccc(NC(=S)Nc2ccc(C3=NCCN3)cc2)c1 was tested, and the T/C (dose: 5.0 mg/kg/injection, schedule: Q01DX Z (ip), vehicle: saline) was 107 % of control and 122 % of control, the T/C (dose: 20.0 mg/kg/injection, schedule: Q01DX Z (ip), vehicle: saline) was 102 % of control and 113 % of control and the T/C (dose: 60.0 mg/kg/injection, schedule: Q01DX Z (oral), vehicle: saline) was 103 % of control. The T/C (dose: 120.0 mg/kg/injection, schedule: Q01DX Z (oral), vehicle: saline) was 111 % of control.
CC(=O)OCC1OCOC2C1OC1OCOC12 (stereo not drawn) was tested, and the T/C (dose: 100.0 mg/kg/injection, schedule: Q04DX002 (ip), vehicle: saline with Tween-80) was 104 % of control, the T/C (dose: 200.0 mg/kg/injection, schedule: Q04DX002 (ip), vehicle: saline with Tween-80) was 104 % of control and the T/C (dose: 400.0 mg/kg/injection, schedule: Q04DX002 (ip), vehicle: saline with Tween-80) was 118 % of control.
In the case of CCCCCCCCCCCCCCCOc1ccc(C)cc1, the T/C [16] is reported as 93 % of control, the T/C [17] is reported as 101 % of control and the T/C [18] is reported as 95 % of control.
With Nc1cccc(C(F)(F)F)c1 the T/C (dose: 25.0 mg/kg/injection, schedule: Q01DX009 (ip), vehicle: saline) was 103 % of control, the T/C (dose: 50.0 mg/kg/injection, schedule: Q01DX009 (ip), vehicle: saline) was 103 % of control and the T/C [8] was 94 % of control and 88 % of control.
With CCCCCCCCCN(CCCC)CCCC the T/C (dose: 25.0 mg/kg/injection, schedule: Q01DX001 (ip), vehicle: saline with Tween-80) was 95 % of control, the T/C (dose: 50.0 mg/kg/injection, schedule: Q01DX001 (ip), vehicle: saline with Tween-80) was 88 % of control and the T/C [19] was 102 % of control.
For O=C(O)/C=C/C(=O)Nc1ccc(Br)c(Cl)c1, the T/C [12] was 86 % of control.
Cc1n[n+]([O-])c(C)cc1Cl was tested, and the T/C [5] was 104 % of control, the T/C [6] was 104 % of control and the T/C [7] was 119 % of control.
With O=C(O)COc1ccc(Cl)cc1Cc1ccccc1 the T/C [19] was 98 % of control, the T/C (dose: 200.0 mg/kg/injection, schedule: Q01DX001 (ip), vehicle: saline with Tween-80) was 96 % of control and the T/C (dose: 400.0 mg/kg/injection, schedule: Q01DX001 (ip), vehicle: saline with Tween-80) was 117 % of control.
CC1=C(C)CS(=O)(=O)C1 was tested, and the T/C (dose: 25.0 mg/kg/injection, schedule: Q04DX003 (ip), vehicle: saline with Tween-80) was 95 % of control, the T/C (dose: 50.0 mg/kg/injection, schedule: Q04DX003 (ip), vehicle: saline with Tween-80) was 101 % of control and the T/C [13] was 102 % of control.
With COC1(c2ccccc2)OC(C(C)(C)C)=NC1(C)C (stereo not drawn) the T/C [13] was 92 % of control and the T/C [14] was 108 % of control.
